For 17 compounds, IC50 results are on record in patent US7087622B2, “Pyridone compounds as inhibitors of bacterial type III protein secreation systems” (priority 2004, dated 2006).

Common to all, as to format: cell-based
In assay [1] the test system is SPI1 type III protein secretion system (SopE-Bla secretion). The assay can be described thus: Primary assay: Type III protein secretion of the chimeric SopE-Bla polypeptide by Salmonella enterica (nitrocefin hydrolysis). Conditions: read-out: SopE IC50(uM). From the text:
Primary assay: Type III protein secretion of the chimeric SopÉ-Bla polypeptide by Salmonella enterica. This procedure is a cell-based assay that measures the type III-dependent secretion by Salmonella enterica of a plasmid-encoded chimeric polypeptide whose synthesis can be regulated, and which is endowed with an enzymatic activity that can be monitored calorimetrically by hydrolysis of a substrate that is unable to penetrate into the bacterial cytoplasm within the time constraints of the reaction. Thus, the colorimetric reaction is not influenced by SopÉ-Bla polypeptide in the bacterial cytoplasm. Instead, it effectively measures the amount of polypeptide that has been secreted from the S. enterica cytoplasm to the extracellular medium via type III system protein secretion.
The SopÉ-Bla recombinant polypeptide consists of two functionally distinct domains spliced together. The N-terminus domain is encoded by a polynucleotide region specifying the signal for type III secretion of the SopE polypeptide of S. enterica, an effector of the SPI1 type III protein secretion system. The C-terminus domain of SopÉ-Bla consists of a 263 amino acid peptide sequence that corresponds to the TEM-1 β-lactamase expressed by plasmid pBR322 but without its N-terminal signal sequence. The TEM-1 β-lactamase part of the SopÉ-Bla chimeric polypeptide is used as a reporter enzyme. It is capable of hydrolyzing nitrocefin resulting in a product whose accumulation can be monitored by colorimetric detection. The secretion of the SopÉ-Bla chimeric polypeptide from the cytoplasm to the extracellular medium is dependent on type III protein secretion.
For this procedure, cells grown under conditions known to favor a functional SPI1 secretion system are induced for expression of the SopÉ-Bla protein and grown either in the presence or in the absence of putative inhibitors for determined time. Nitrocefin is then added to the various cultures and its hydrolysis are used for quantitation. An inhibitor of Type III protein secretion is generally a compound that reduces the signal of the enzymatic reaction by decreasing the amount of SopÉ-Bla secreted into the extracellular medium.

The test system of assay [2] is SPI1 type III protein secretion system (SipB secretion). The assay can be described thus: Secondary assay: Type III-dependent protein secretion of the SipB polypeptide by S. enterica (immunoblot). Conditions: Salmonella enterica, read-out: SipB IC50(uM). The procedure:
Secondary assay: Type III-dependent protein secretion of the SipB polypeptide by S. enterica. The SipB protein of S. enterica is another effector of the SPI1 type III protein secretion system from S. enterica. In this cell-based procedure, the Type III-dependent secretion of SipB from the bacterial cytoplasm to the extracellular medium was measured through its reactivity with a cognate mouse monoclonal.
Salmonella enterica cells growing either in the presence or in the absence of inhibitors are induced for the production of SipB. Following an established period of growth the cells are sedimented and the amount of SipB present in the supernatant is quantified with a scanning imager following application of immunoblot techniques. Detection may employ an anti-SipB mouse monoclonal antibody (e.g., obtained from Jorge Galan, SUNY at Stony Brook, N.Y.) followed by treatment with commercially available sheep anti-mouse polyclonal antibody conjugated with horseradish peroxidase. Thereafter the membrane is treated with a peroxidase chemiluminescent substrate and exposed to film for an appropriate exposure time. Inhibition may be measured relative to untreated controls.

The subject of assay [3] is type III protein secretion system of P. aeruginosa PA103 (ExoU secretion). The assay can be described thus: Tertiary assay: Type III-dependent secretion of ExoU by P. aeruginosa PA103 (SDS-PAGE band quantitation). Conditions: Pseudomonas aeruginosa, ExoU secreted into extracellular medium. From the text:
Tertiary assay: inhibition of Type III protein secretion of effectors from a Pseudomonas aeruginosa system. Type III protein secretion is used by P. aeruginosa to secrete several essential virulence determinants. One effector of the type III protein secretion system of P. aeruginosa PA103 is the virulence determinants ExoU.
The amount of Type III-dependent secretion of ExoU by P. aeruginosa PA103 can be determined in a cell-based assay by quantification of the 73.9 kDa ExoU protein secreted into the extracellular medium. Such quantitation can be achieved by growing strain PA103 in a deferrated medium in the presence of nitrilotriacetic acid (an inducer of Type III protein secretion in P. aeruginosa) and either in the presence or absence of putative inhibitors. After a prolonged growth period, the cells are sedimented and the supernatants concentrated by ammonium sulfate precipitation. The proteins in the resuspended pellets are separated by electrophoresis on SDS-polyacrylamide gels. After staining gels with Colloidal Blue™, the 73.9 kDa ExoU band is quantitated by scanning through an imager. The effects of inhibitors on the intensity of the ExoU band may be measured relative to that of untreated controls.

pIC50: −log10 of the molar value.

Regarding `O=C(Nc1cc(-c2ccc(-c3ccccc3)cc2)cn(C(CSCc2ccccc2)C(=O)O)c1=O)c1ccc(C(F)(F)F)cc1` (stereo in doubt) [Compound 14, (R)-3-Benzylsulfanyl-2-[5-biphenyl-4-yl-2-oxo-3-(4-trifluoromethylbenzoylamino)-2H-pyridi-1-yl]propionic acid], the figures for the IC50 in assay [1] and in assay [2] were 31.3 µM and 7.1 µM, respectively. In assay [3], this compound gave a pIC50 of 4.50.

As for `O=C(Nc1cc(-c2ccc(Oc3ccccc3)cc2)cn(C(CSCc2ccccc2)C(=O)O)c1=O)c1ccc(C(F)(F)F)cc1` (stereo in doubt) [Compound 15, (R)-3-Benzylsulfanyl-2-[2-oxo-5-(4-phenoxyphenyl)-3-(4-trifluoromethyl-benzoylamino)-2H-pyridin-1-yl]propionic acid], the IC50 in assay [1] amounted to 9.1 µM; in assay [2], 67.9 µM. This compound also showed a pIC50 in assay [3] of 4.08.

With `O=C(Nc1cc(-c2cccc3ccccc23)cn([C@@H](Cc2ccccc2)C(=O)O)c1=O)c1ccc(C(F)(F)F)cc1` [Compound 1, (S)-2-[5-Naphthalen-1-yl-2-oxo-3-(4-trifluoromethylbenzoylamino)-2H-pyridin-1-yl]-3-phenylpropionic acid], the figures for the IC50 in assay [1] and in assay [2] were 14.4 µM and 82.8 µM, respectively. The pIC50 in assay [3] is 4.08.

Take `O=C(Nc1cc(-c2ccc(Oc3ccccc3)cc2)cn([C@@H](Cc2ccccc2)C(=O)O)c1=O)c1ccc(C(F)(F)F)cc1` [Compound 4, (S)-2-[2-Oxo-5-(4-phenoxyphenyl)-3-(4-trifluoromethylbenzoylamino)-2H-pyridin-1-yl]-3-phenylpropionic acid]: the IC50 in assay [1] turned out to be 6.3 µM; in assay [2], 84.7 µM. This compound gave a pIC50 in assay [3] of 4.07.

For `O=Cc1ccc(-c2cc(NC(=O)c3ccc(C(F)(F)F)cc3)c(=O)n([C@@H](Cc3ccccc3)C(=O)O)c2)cc1` [Compound 5, (S)-2-[5-(4-Formylphenyl)-2-oxo-3-(4-trifluoromethylbenzoylamino)-2H-pyridin-1-yl]-3-phenylpropionic acid], the IC50 was 49.9 µM in assay [1] and over 100 µM in assay [2]. In assay [3], the pIC50 was under 4.00.

Regarding `COC(=O)c1ccc(-c2cc(NC(=O)c3ccc(C(F)(F)F)cc3)c(=O)n([C@@H](Cc3ccccc3)C(=O)O)c2)cc1` [Compound 6, (S)-4-[1-(1-Carboxy-2-phenethyl)-6-oxo-5-(4-trifluoromethylbenzoylamino)-1,6-dihydro-pyridin-3-yl]benzoic acid methyl ester], the IC50 in assay [1] is 53.6 µM; in assay [2], over 100 µM. Also, in assay [3], the pIC50 was under 4.00.

As to `O=C(Nc1cc(-c2cccc3ccccc23)cn([C@@H](COCc2ccccc2)C(=O)O)c1=O)c1ccc(C(F)(F)F)cc1` [Compound 8, (S)-3-Benzyloxy-2-[5-naphthalen-1-yl-2-oxo-3-(4-trifluoromethylbenzoylamino)-2H-pyridin-1-yl]propionic acid], the half-inhibitory concentration (IC50) in assay [1] came out at 29.5 µM; in assay [2], 49.2 µM. Besides, the negative logarithm of the IC50 (pIC50) in assay [3] is under 4.00.

For `O=C(Nc1cc(-c2ccc(Oc3ccccc3)cc2)cn([C@@H](COCc2ccccc2)C(=O)O)c1=O)c1ccc(C(F)(F)F)cc1` [Compound 9, (S)-3-Benzyloxy-2-[2-oxo-5-(4-phenoxyphenyl)-3-(4-trifluoromethyl-benzoylamino)-2H-pyridin-1-yl]propionic acid], the results for the IC50 in assay [1] and in assay [2] were 10.1 µM and 26.2 µM, respectively. The same compound had a pIC50 in assay [3] of under 4.00.

In the case of `O=C(Nc1cc(-c2ccccc2Oc2ccccc2)cn([C@@H](COCc2ccccc2)C(=O)O)c1=O)c1ccc(C(F)(F)F)cc1` [Compound 10, (S)-3-Benzyloxy-2-[2-oxo-5-(2-phenoxyphenyl)-3-(4-trifluoromethyl-benzoylamino)-2H-pyridin-1-yl]propionic acid], the 50% inhibitory concentration (IC50) in assay [1] is 27 µM; in assay [2] it was 37.4 µM. In assay [3], this compound had a pIC50 of under 4.00.

On to `O=C(Nc1cc(-c2ccc(Cl)c(Cl)c2)cn(C(Cc2ccc(Cl)cc2)C(=O)O)c1=O)c1ccc(C(F)(F)F)cc1` (centres unmarked) [Compound 20, 3-(4-Chlorophenyl)-2-[5-(3,4-dichloro-phenyl)-2-oxo-3-(4-trifluoromethyl-benzoylamino)-2H-pyridin-1-yl]propionic acid], for which the IC50 in assay [1] is 2.7 µM; in assay [2] it was over 100 µM. Further, the pIC50 in assay [3] is under 4.00.

On to `O=C(Nc1cc(-c2ccc(F)cc2F)cn(C(Cc2ccc(Cl)cc2)C(=O)O)c1=O)c1ccc(C(F)(F)F)cc1` (centres unmarked) [Compound 21, 3-(4-Chlorophenyl)-2-[5-(2,4-difluorophenyl)-2-oxo-3-(4-trifluoromethyl-benzoylamino)-2H-pyridin-1-yl]propionic acid], for which the IC50 in assay [1] amounted to 13.5 µM; in assay [2], 79 µM. The pIC50 in assay [3] was 4.21.

Take `O=C(Nc1cc(-c2cccc(C(F)(F)F)c2)cn(C(Cc2ccc(Cl)cc2)C(=O)O)c1=O)c1ccc(-c2ccccc2)cc1` (centres unmarked) [Compound 22, 2-[3-[(Biphenyl-4-carbonyl)amino]-2-oxo-5-(3-trifluoromethylphenyl)-2H-pyridin-1-yl]-3-(4-chlorophenyl)propionic acid]: the values for the concentration for half-maximal inhibition (IC50) in assay [1] and in assay [2] were 3.4 µM and 38.3 µM, respectively. The same compound gave a pIC50 in assay [3] of under 4.00.

For `O=C(Nc1cc(-c2cccc3c2sc2ccccc23)cn(C(Cc2ccc(Cl)cc2)C(=O)O)c1=O)c1ccc(C(F)(F)F)cc1` (centres unmarked) [Compound 24, 3-(4-Chlorophenyl)-2-[5-dibenzothiophen-4-yl-2-oxo-3-(4-trifluoromethyl-benzoylamino)-2H-pyridin-1-yl]propionic acid], the IC50 was found to be 1.6 µM in assay [1] and 67.1 µM in assay [2]. The same compound had a pIC50 in assay [3] of 4.20.

Take `O=C(Nc1cc(-c2ccc(Br)cc2)cn(C(Cc2ccc(Cl)cc2)C(=O)O)c1=O)c1ccc(-c2ccccc2)cc1` (centres unmarked) [Compound 37, 2-[3-[(Biphenyl-4-carbonyl)amino]-5-(4-bromophenyl)-2-oxo-2H-pyridin-1-yl]-3-(4-chlorophenyl)propionic acid]: the IC50 in assay [1] was 1.5 µM; in assay [2], over 100 µM.

In the case of `O=C(Nc1cc(-c2cccc3ccccc23)cn(C(Cc2ccc(Cl)cc2)C(=O)O)c1=O)c1ccc(-c2ccccc2)cc1` (centres unmarked) [Compound 46, 2-{3-[(Biphenyl-4-carbonyl)amino]-5-naphthalen-1-yl-2-oxo-2H-pyridin-1-yl}-3-(4-chlorophenyl)propionic acid], the IC50 in assay [1] is 1.1 µM; in assay [2], over 100 µM.

Turning to `O=C(Nc1cc(-c2ccc(Cl)cc2)cn(C(Cc2ccc(Cl)cc2)C(=O)O)c1=O)c1ccc(Oc2ccccc2)cc1` (centres unmarked) [Compound 52, 3-(4-Chlorophenyl)-2-[5-(4-chlorophenyl)-2-oxo-3-(4-phenoxybenzoylamino)-2H-pyridin 1-yl]propionic acid], the figures for the IC50 in assay [1] and in assay [2] were 9 µM and over 100 µM, respectively.

As for `O=C(Nc1cc(-c2ccc(C(F)(F)F)cc2)cn(C(Cc2ccc(Cl)cc2)C(=O)O)c1=O)c1ccc(Oc2ccccc2)cc1` (centres unmarked) [Compound 54, 3-(4-Chlorophenyl)-2-[2-oxo-3-(4-phenoxybenzoylamino)-5-(4-trifluoromethyl-phenyl)-2H-pyridin-1-yl]propionic acid], the IC50 in assay [1] is 16.6 µM; in assay [2] it was over 100 µM.

The term IC50 denotes the concentration at which inhibition is half-maximal. As a reminder, the pIC50 is the IC50 on a negative log10 scale, so that one unit is a factor of ten. The low end stands for a high IC50, the high end for a low IC50.
